One experiment has as its system HBV replication in HepG2.2.15 cells. As to the kind of experiment: HBV inhibition assay in HepG2.2.15 cells (extracellular HBV DNA by qPCR). The experiment is classed as cell-based, Hepatitis B virus. To be noted: Hepatitis B virus, HepG2.2.15, 120 h, five days after compound treatment, extracellular HBV DNA in culture supernatant by qPCR, read-out: EC50 (effective compound concentration at which HBV replication was inhibited by 50%). The text has this: HepG2.2.15 is a stably-transfected cell line containing the HBV genome. It is derived from the hepatoblastoma cell line Hep G2 (American Type Culture Collection, ATCC® HB-8065™) by the published procedures described in reference: M A Selles et al. Proc. Natl. Acad. Sci. USA 1987, 84, 1005-1009. The cell line was maintained in Dulbecco's modified Eagle's medium and nutrient mixture F-12 (DMEM/F-12, Gibco, Cat. #: 11320-033) supplemented with 10% fetal bovine serum (Gibco, Cat. #:10099-141), 100 U/mL penicillin, 100 μg/mL streptomycin (Gibco, Cat. #:15140-122), and 0.3 mg/mL of G418 Sulfate (Gibco, Cat. #: 10131-027).
HepG2.2.15 cells were seeded into 96-well plates at a density of 3×10^4 cells per well in culture media of 100 μL DMEM/F-12 supplemented with 2.5% fetal bovine serum, 100 U/mL penicillin, 100 μg/mL streptomycin and cultured overnight at 37° C. The test compounds were serially half-log diluted in DMSO, then diluted 100 times in culture media. 100 μL culture media containing diluted compounds were added into the plates to reach 0.5% final concentration of DMSO in every well. Five days after compound treatment, culture supernatant was collected for further analysis.
For quantitative PCR detection of extracellular HBV DNA, culture supernatant was processed by 500 μg/mL Proteinase K (Sigma, Cat. #:P2308) digestion at 50° C. for 1 hour. After heat inactivation of the enzyme at 95° C. for 15 minutes, the samples were subjected to HBV DNA quantification by qPCR. The effective compound concentration at which HBV replication was inhibited by 50% (EC50) was determined.
(In qPCR the cycle at which signal appears reflects the starting amount.)
Regarding `C[C@H]1Cn2ncc(N3CCOCS3(=O)=O)c2CN1C(=O)Nc1cc(F)c(F)c(F)c1` [Example 24, (6S)-3-(3,3-dioxo-1,3,4-oxathiazinan-4-yl)-6-methyl-N-(3,4,5-trifluorophenyl)-6,7-dihydro-4H-pyrazolo[1,5-a]pyrazine-5-carboxamide], the EC50 came to 11 nM.

Take `C[C@H]1Cn2ncc(N3CCS3(=O)=O)c2CN1C(=O)Nc1cc(F)c(F)c(F)c1` [Example 25, (6S)-3-(1,1-dioxothiazetidin-2-yl)-6-methyl-N-(3,4,5-trifluorophenyl)-6,7-dihydro-4H-pyrazolo[1,5-a]pyrazine-5-carboxamide]: the EC50 worked out at 140 nM.

As to `C[C@H]1Cn2ncc(N3CC(O)CNS3(=O)=O)c2CN1C(=O)Nc1cc(F)c(F)c(F)c1` (stereo partly drawn) [Example 26, (6S)-3-(4-hydroxy-1,1-dioxo-1,2,6-thiadiazinan-2-yl)-6-methyl-N-(3,4,5-trifluorophenyl)-6,7-dihydro-4H-pyrazolo[1,5-a]pyrazine-5-carboxamide], the EC50 was 130 nM.

In the case of `C[C@H]1Cn2ncc(N3CCCNS3(=O)=O)c2CN1C(=O)Nc1cc(F)c(F)c(F)c1` [Example 27, (6S)-3-(1,1-dioxo-1,2,6-thiadiazinan-2-yl)-6-methyl-N-(3,4,5-trifluorophenyl)-6,7-dihydro-4H-pyrazolo[1,5-a]pyrazine-5-carboxamide], the EC50 was determined as 44 nM.

As to `CC1C(O)CS(=O)(=O)N1c1cnn2c1CN(C(=O)Nc1cc(F)c(F)c(F)c1)[C@@H](C)C2` (stereo partly drawn) [Example 28-1, (6S)-3-(4-hydroxy-3-methyl-1,1-dioxo-1,2-thiazolidin-2-yl)-6-methyl-N-(3,4,5-trifluorophenyl)-6,7-dihydro-4H-pyrazolo[1,5-a]pyrazine-5-carboxamide], the EC50 worked out at 21 nM.

`CC1C(O)CS(=O)(=O)N1c1cnn2c1CN(C(=O)Nc1ccnc(C(F)F)c1)[C@@H](C)C2` (stereo partly drawn) [Example 29, (6S)—N-[2-(difluoromethyl)-4-pyridyl]-3-(4-hydroxy-3-methyl-1,1-dioxo-1,2-thiazolidin-2-yl)-6-methyl-6,7-dihydro-4H-pyrazolo[1,5-a]pyrazine-5-carboxamide]: the EC50 worked out at 320 nM.

Consider `CC1C(Oc2ncccn2)CS(=O)(=O)N1c1cnn2c1CN(C(=O)Nc1cc(F)c(F)c(F)c1)[C@@H](C)C2` (stereo partly drawn) [Example 30, (6S)-6-methyl-3-(3-methyl-1,1-dioxo-4-pyrimidin-2-yloxy-1,2-thiazolidin-2-yl)-N-(3,4,5-trifluorophenyl)-6,7-dihydro-4H-pyrazolo[1,5-a]pyrazine-5-carboxamide], for which the EC50 was 3.5 nM.

`COC1CS(=O)(=O)N(c2cnn3c2CN(C(=O)Nc2cc(F)c(F)c(F)c2)[C@@H](C)C3)C1C` (stereo partly drawn) [Example 31, (6S)-3-(4-methoxy-3-methyl-1,1-dioxo-1,2-thiazolidin-2-yl)-6-methyl-N-(3,4,5-trifluorophenyl)-6,7-dihydro-4H-pyrazolo[1,5-a]pyrazine-5-carboxamide]: the EC50 was determined as 9.7 nM.

As for `COC1CS(=O)(=O)N(c2cnn3c2CN(C(=O)Nc2ccnc(C(F)F)c2)[C@@H](C)C3)C1C` (stereo partly drawn) [Example 32-1, (6S)—N-[2-(difluoromethyl)-4-pyridyl]-3-(4-methoxy-3-methyl-1,1-dioxo-1,2-thiazolidin-2-yl)-6-methyl-6,7-dihydro-4H-pyrazolo[1,5-a]pyrazine-5-carboxamide], the EC50 amounted to 170 nM.

Consider `C[C@H]1Cn2ncc(N3CCCS3(=O)=O)c2CN1C(=O)NCc1ccsc1` [Example 34, (6S)-3-(1,1-dioxo-1,2-thiazolidin-2-yl)-6-methyl-N-(3-thienylmethyl)-6,7-dihydro-4H-pyrazolo[1,5-a]pyrazine-5-carboxamide], for which the EC50 was found to be 99 nM.

In the case of `C[C@H]1Cn2ncc(N3CC(N4CCC[C@H]4C(=O)O)CS3(=O)=O)c2CN1C(=O)Nc1cc(F)c(F)c(F)c1` (stereo partly drawn) [Example 35, (2S)-1-[2-[(6S)-6-methyl-5-[(3,4,5-trifluorophenyl)carbamoyl]-6,7-dihydro-4H-pyrazolo[1,5-a]pyrazin-3-yl]-1,1-dioxo-1,2-thiazolidin-4-yl]pyrrolidine-2-carboxylic Acid], the EC50 came to 6.7 nM.

As to `C[C@H]1Cn2ncc(N3CC(c4ccccc4C(=O)O)CS3(=O)=O)c2CN1C(=O)Nc1cc(F)c(F)c(F)c1` (stereo partly drawn) [Example 36, 2-[2-[(6S)-6-methyl-5-[(3,4,5-trifluorophenyl)carbamoyl]-6,7-dihydro-4H-pyrazolo[1,5-a]pyrazin-3-yl]-1,1-dioxo-1,2-thiazolidin-4-yl]benzoic acid], the EC50 amounted to 17 nM.

Staying with this experiment, now noted: five days after compound treatment, extracellular HBV DNA in culture supernatant by qPCR, read-out: EC50 (effective compound concentration at which HBV replication was inhibited by 50%).
In the case of `CC1C(O)CS(=O)(=O)N1c1cnn2c1CN(C(=O)Nc1cc(F)c(F)c(F)c1)[C@@H](C)C2` (stereo partly drawn) [Example 28-2, (6S)-3-(4-hydroxy-3-methyl-1,1-dioxo-1,2-thiazolidin-2-yl)-6-methyl-N-(3,4,5-trifluorophenyl)-6,7-dihydro-4H-pyrazolo[1,5-a]pyrazine-5-carboxamide], the EC50 came to 18 nM.

The values above are taken from US10683299B2, “Pyrazolopyrazine and triazolopyrazine compounds for the treatment of infectious diseases” (Hoffmann-La Roche Inc., priority 2017, dated 2020).
